Experimental data from patent publication US6497872B1, “Neural transplantation using proliferated multipotent neural stem cells and their progeny” (NeuroSpheres Holdings Ltd., priority 1991, dated 2002).

Assays:
Striatal cells (E14) = test: FGF-2 priming of low-density striatal cells before EGF (Example 8); assay type: cell-based, mouse; details: primed with 20 ng/ml FGF-2 for 11 DIV, then 20 ng/ml EGF 4-5 DIV; 2500 cell/cm^2
Description: Striatal cells (E14, 2500 cell/cm^2) were plated in the absence or presence of 20 ng/ml of FGF-2. After 11 DIV, cultures were washed and medium containing 20 ng/ml of EGF was added. After 4-5 DIV, in cultures that were primed with FGF-2, greater than 70% of the wells examined contained clusters of proliferating cells that developed into colonies with the morphologic and antigenic properties of the EGF-generated cells.

[1] = test system: EGF-generated neurospheres; test: Effect of growth factors on neurosphere differentiation, immunocytochemistry (Example 8); assay type: cell-based, mouse; details: 20 ng/ml
Description: Six to 8 days after the first passage, the neurospheres were removed and centrifuged at 400 r.p.m. The EGF-containing supernatant was removed and the pellet suspended in EGF-free complete medium containing 1% FBS. Neurospheres (approximately 0.5-1.0×10^6 cells/well) were plated on poly-L-ornithine-coated (15 μg/ml) glass coverslips in 24 well Nuclon (1.0 ml/well) culture dishes. After 24 hours in culture, the coverslips were transferred to 12 well (Costar) culture dishes containing complete medium containing 0.5% FBS. The medium was changed every 4-7 days. This differentiation procedure is referred to as the “Rapid Differentiation Paradigm” or RDP.
Six to 8 days after the first passage, the neurospheres were removed and centrifuged at 400 r.p.m. The EGF-containing media was removed and the pellet was suspended in EGF-free complete medium containing 1% FBS. The neurospheres were mechanically dissociated into single cells with a fire-polished Pasteur pipette and centrifuged at 800 r.p.m. for 5 minutes. Between 0.5×10^6 and 1.0×10^6 cells were plated on poly-L-ornithine-coated (15 μg/ml) glass coverslips in 24 well Nuclon (1.0 ml/well) culture dishes. The EGF-free culture medium containing 1% FBS was changed every 4-7 days.
Neurospheres were washed free of EGF by serial transfers through changes of EGF-free medium. A single neurosphere was plated onto poly-L-ornithine-coated (15 μg/ml) glass coverslips in a 24-well plate. The culture medium used was complete medium with or without I % FBS. The medium was changed every 4-7 days.
Neurospheres were washed free of EGF by serial transfers through changes of EGF-free medium. A single neurosphere was mechanically dissociated in a 0.5 ml Eppendorf centrifuge tube and all the cells were plated onto a 35 mm culture dish. Complete medium was used with or without 1% FBS.
The effects of CNTF, FGF-2, BDNF, and retinoic acid on neurosphere differentiation were tested using the differentiation paradigms set forth in Example 7.
The effect of CNTF was assayed in paradigms 1 and 3. For both paradigms, CNTF was added either at the beginning of the experiment at a concentration of 10 ng/ml or daily at a concentration of 1 ng/ml.
Three different antibodies directed against 04, galactocerebroside (GalC) and MBP were used to study the effect of CNTF on the oligodendrocytes of paradigm 1. CNTF had no effect on the number of 04(+) cells, but there was an increase in the number of GalC(+) and MBP(+) cells compared with the control. Thus it appears that CNTF plays a role in the maturation of oligodendrocytes.
The effect of FGF-2 was tested using paradigms 2 and 4. In paradigm 2, 20 ng/ml of FGF-2 was added at the beginning of the experiment and cells were stained 7 days later. FGF-2 increased the number of GFAP(+) cells and the number of NSE(+) cells.
In paradigm 4, 20 ng/ml of FGF-2 was added at the beginning of the experiment and assayed 7-10 days later. […] It induced two different cell types to divide, neuroblasts and bipotential progenitor cells. The neuroblast produced, on average, 6 neurons while the bipotential cell produced approximately 6 neurons and a number of astrocytes.

[2] = paradigm 2, stained 7 days later

## bFGF: basic fibroblast growth factor, recombinant human (R & D Systems)
Striatal cells (E14)
  wells containing clusters of proliferating cells: greater than 70%
[1]; [2]
  number of GFAP(+) cells: increased
  number of NSE(+) cells: increased
[1]; paradigm 4
  neurons produced per bipotential cell: approximately 6 neurons
  neurons produced per neuroblast, on average: 6 neurons
[1]; paradigm 4, 7-10 days
  proliferation of neural stem cell progeny generated by the EGF-responsive stem cell: induced the proliferation
